Test results: US5340920A, “Physiologically active porcine peptide (CNP-53)” (Matsuo; Hisayuki, priority 1990, dated 1994)

Key:
chick rectum = assay: Chick rectum relaxant activity (method of Currie et al.); settings: assay system of Currie et al.; compared with CNP-22
Procedure: The chick rectum relaxant activity of CNP-53 was measured in accordance with the method of Currie et al. (Currie et al., […]).

[1] = system: anti-CNP-22 antiserum (antibody #171-4); assay: RIA system using anti-CNP-22 antiserum #171-4 and I125 labelled [Tyr0] CNP-22; assay type: binding, rabbit; settings: for cross-reactivity of antibody #171-4: RIA, CNP-22 as standard
Procedure: Six milligrams of chemically synthesized CNP-22 and 15 mg of bovine thyroglobulin (product of Sigma Co.) were dissolved in 2 ml of 0.1M phosphate buffer (pH 7.4). To the solution, 100 μl of 5% glutaraldehyde was added and the mixture was agitated at 0° C. for 20 min to have CNP-22 bound to the thyroglobulin. Then, the solution was dialyzed five times against water (500 ml) and twice against 500 ml of 50 mM phosphate buffer (pH 7.4) containing 80 mM NaCl, whereby excess salts and reagents were removed from the reaction solution. Subsequently, 50 mM phosphate buffer containing 80 mM NaCl was added to the reaction solution to make a total volume of 12 ml. Thereafter, an equal volume of Freund's complete adjuvant was added to form an emulsion. A rabbit (New Zealand White) was repeatedly immunized with the emulsion at 20-day intervals so as to prepare an anti-CNP-22 antiserum. The thus prepared antiserum was named "#171-4".
In the first step, [Tyr°] CNP-22 [a peptide having a tyrosine residue (Tyr) added to the N-terminus of CNP-22] was chemically synthesized. Then, I^125 was introduced into the N-terminal Tyr residue by the method of Miyata et al. (Miyata, A. et al., Biochem. Biophys. Res. Commun., 129, 248-255, 1985) and the I^125 labelled monoiodo(Tyr°] CNP-22 was separated and isolated by reverse-phase HPLC.
In the next step, an RIA system was constructed by the following method using the thus I125 labelled [Tyr°] CNP-22 and the antibody (#171-4) prepared in Example 1-A.
As a buffer for the RIA system, 50 mM phosphate buffer (pH 7.4) containing 80 mM NaCl, 0.1% Triton X-100, 25 mM EDTA, 0.05% NaN3, 3.1% dextran T-40 and 0.25% BSA (as treated with N-ethylmaleimide) was used. A standard CNP-22 solution or assay sample (100 μl) and the antibody #171-4 prepared in Example 1-A (100 μl of a 60,000-fold dilution) were added to the buffer and the mixture was subjected to reaction at 4° C. for 24 h. […] Thereafter, polyethylene glycol was added and the radioactivity of the resulting precipitate was measured with a gamma-counter (ARC-600 of Aloka Co.).

[2] = Diuretic and natriuretic actions of the purified peptide; assay type: in vivo; settings: no method described
rats = settings: administered to rats; Japanese Patent Application No. 105047/1990; cited from earlier work

CNP-53: novel porcine brain peptide of 53 amino acid residues containing CNP-22 at the C-terminus, intramolecular S-S bond Cys37-Cys53 (DLRVDTKSRAAWARLLHEHPNARKYKGGNKKGLSKGCFGLKLDRIGSMSGLGC)
chick rectum relaxant activity (chick rectum): comparable chick rectum relaxant activity to CNP-22 | immunoreactivity per molecule with the anti-CNP-22 antiserum ([1]; RIA of Example 1, assuming 53 residues containing CNP-22 at the C-terminus, compared with CNP-22): comparable to that of CNP-22 | diuretic and natriuretic actions [2]: diuretic and natriuretic actions

CNP-22: C-type natriuretic peptide of 22 amino acid residues from porcine brain, single S-S bond, no C-terminal tail (GLSKGCFGLKLDRIGSMSGLGC)
natriuretic and hypotensive actions (rats): natriuretic and hypotensive actions

α-ANP: α-type atrial natriuretic peptide, single-stranded peptide of 28 amino acids with a single S-S bond [reference compound]
cross-reactivity of antibody #171-4 [1]: 0.015%

B1: pBNP-26: porcine brain natriuretic peptide of 26 amino acid residues having a single S-S bond (peptide)
peptide: HPLGGAGLASELPGIQELLDRLRDRVSELQAERTDLEPLRQDRGLTEAWEAREAAPTGVLGPRSSIFQVLRGIRSPKTMRDSGCFGRRLDRIGSLSGLGCNVLRRY
cross-reactivity of antibody #171-4 [1]: 0.46%
